Where two headings read alike, the source gives them in different places. Some results are limits rather than exact numbers.

A short description of assay [1]: Ca^2+ affinity (dissociation constant) of the chelators. Format: binding. The settings on record: for Ca^2+ affinity (rank in words): conformational explanation of Table I.
Assay [2] is described as follows: Ca^2+:Mg^2+ selectivity (rejection of Mg^2+). The conditions noted are these: 22° C., 0.1M ionic strength. Format: binding.
Assay [3] can be described thus: Mg^2+ affinity (dissociation constant) of the chelators. Format: binding.
Assay [4] in a line: Release of Ca^2+ after flash photolysis. The conditions noted are these: after a submillisecond light flash.
For assay [5] the following is noted: Tsien, 1980; read-out: Kd (Ca^2+); cited from earlier work.
For assay [6] the following is noted: cytosolic free calcium 2+ typical for resting cells; cited from earlier work.
The conditions of assay [7]: EDTA analogs vs EDTA parent; cited from earlier work.

In the case of `Cc1ccc(N(CC(=O)O)CC(=O)O)c(O[C@@H]2CCC[C@@H]2Oc2cc(C(=O)c3cc4c(cc3N=O)OCO4)ccc2N(CC(=O)O)CC(=O)O)c1` (relative stereo) [VIII], in assay [1] (after photolysis of nitr-7 to the nitrosobenzophenone, read-out: dissociation constant for Ca^2+ upon photolysis), the Kd turned out to be 3 µM. Consider `Cc1ccc(N(CC(=O)O)CC(=O)O)c(O[C@H]2CCC[C@H]2Oc2cc(C(O)c3cc4c(cc3[N+](=O)[O-])OCO4)ccc2N(CC(=O)O)CC(=O)O)c1` (relative stereo) [nitr-7, cis-1-(2-bis(carboxymethyl)amino-5-(1-hydroxy-1-(2-nitro-4,5-methylenedioxyphenyl)methyl)phenoxy)-2-(2-bis(carboxymethyl)amino-5-methylphenoxy)cyclopentane], for which the “Rejection of Mg^2+” value in assay [2] is > 10^5. In addition, the Kd in assay [3] (22° C., 0.1M ionic strength, read-out: dissociation constant for Mg^2+) worked out at 5700 µM; in assay [1] (22° C., 0.1M ionic strength, before photolysis, read-out: dissociation constant for Ca^2+), 0.053 µM. Also, the “Ca^2+ affinity (rank in words)” value in assay [1] was “highest Ca^2+ affinities”. The “exponential time constant of Ca^2+ release” value in assay [4] was found to be 1.8 millisecond. Turning to `O=C(O)CN(CC(=O)O)c1ccccc1OCCOc1ccccc1N(CC(=O)O)CC(=O)O` [BAPTA, 1,2-bis(2-aminophenoxy)ethane N,N,N'N'-tetraacetic acid], the Kd in assay [5] was 0.1 µM. For `COC(c1ccc(N(CC(=O)O)CC(=O)O)c(OCCOc2cc(C)ccc2N(CC(=O)O)CC(=O)O)c1)c1cc2c(cc1[N+](=O)[O-])OCO2` (stereo not drawn) [nitr-2], the “fraction of unphotolyzed chelator molecules bearing calcium 2+ ions” value in assay [6] is 1/2. For the molecule `O=C(O)CN(CC(=O)O)[C@H]1CCC[C@@H]1N(CC(=O)O)CC(=O)O` (relative stereo) [trans-cyclopentanediyl analog], in assay [7], the “higher affinity for Ca^2+ than the parent” value is reported as 3.7 -fold. As to `O=C(O)CN(CC(=O)O)[C@H]1CCCC[C@@H]1N(CC(=O)O)CC(=O)O` (relative stereo) [trans-cyclohexanediyl analog], the “stronger Ca^2+ affinity than the parent” value in assay [7] is 324 -fold. For `O=C(O)CN(CC(=O)O)[C@@H]1CCCC[C@@H]1N(CC(=O)O)CC(=O)O` [cis-cyclohexanediyl analog], the “weaker Ca^2+ affinity than the parent” value in assay [7] is 17 -fold. With `Cc1ccc(N(CC(=O)O)CC(=O)O)c(O[C@@H]2CCC[C@@H]2Oc2ccccc2N(CC(=O)O)CC(=O)O)c1` (relative stereo) [Va], the Kd in assay [3] (Table I, Chelator V after saponification, read-out: Kd for Mg^2+) amounted to 4200 µM; in assay [1] (Table I, Chelator V after saponification, before photolysis, read-out: Kd for Ca^2+) it was 0.02 µM. The “Ca^2+ affinity (rank in words)” value in assay [1] was “highest Ca^2+ affinities”. In assay [1] (cyclopentanediyl series, cis (Va) vs trans (Vb)), the “higher affinity for Ca^2+ than the trans-isomer” value is reported as 300 -fold.

These data come from US4806604A, “Photosensitive calcium chelators” (Regents of the University of California, priority 1987, dated 1989).
